Assay [1] has as its target T1, Human cytomegalovirus DNA polymerase (Human cytomegalovirus, UniProt P08546).
T1 construct: made in house; host or cells: SF21 insect cells (baculovirus vector)
Put plainly: HCMV polymerase assay (AlphaLISA). The format is biochemical. The settings on record: HCMV DNA polymerase 0.2 nM, 60 minutes at 37° C.; read-out: CMV (IC50). The gist of the method: (§1)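 Baculovirus/SF21-expressed polymerase (HCMV 0.2 nM; VZV 0.4 nM) pre-incubated 30 min at room temperature with compound in HEPES pH 7.5 buffer, then 60 min at 37 °C with 1.6 nM DIG-primer/template, sub-nM to 24 nM dNTPs and 0.8 nM biotin-dUTP. AlphaLISA detection; IC50 from 4-parameter fit.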

For assay [2], the system named is HSV-1 Strain F. Briefly: Viral qPCR assay, HSV-1 in Vero cells. The format is cell-based, Herpes Simplex Virus type 1. Conditions: Human alphaherpesvirus 1, Vero, 72 h, read-out: HSV1 VERO Cell (EC50). The gist of the method: (§2)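 EC50 from a 4-parameter fit of viral genome copies, quantified by TaqMan qPCR on proteinase K lysates against a plasmid standard, with or without PPIA normalization. Infected cells (VZV 0.04-0.1 pfu/cell in MeWo/MRC5; HSV-1 0.0005-0.004 pfu/cell in Vero/MRC5) were exposed to 10-point 3-fold dilutions for ~72 h at 37 °C.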

In assay [3] the target is T2, varicella zoster virus DNA polymerase (Varicella-zoster virus, UniProt P09252).
T2 construct: made in house; host or cells: SF21 insect cells (baculovirus vector)
Put plainly: VZV polymerase assay (AlphaLISA). The format is biochemical. Conditions: VZV DNA polymerase 0.4 nM, 60 minutes at 37° C. The gist of the method:
as §1

In assay [4] the test system is VZV. Put plainly: Viral qPCR assay, VZV in MeWo cells. The format is cell-based, varicella zoster virus. Conditions: Human alphaherpesvirus 3, ~72 hrs, read-out: VZV MEWO Cell (IC50). As for the experimental part:
(§3) MRCS cells, Vero cells, and MeWo cells were obtained from ATCC and were maintained at 37° C./5% CO2/90% relative humidity in Minimal Essential Medium with 10% fetal bovine serum, […] L-glutamine, 100 units/ml penicillin and 100 ug/ml streptomycin. Assay plates were prepared by dispensing compounds dissolved in DMSO into wells of 384 well collagen-coated plates using an ECHO acoustic dispenser. Each compound was tested in a 10-point, serial 3-fold dilution. Controls included uninfected cells and infected cells treated only with DMSO. Assays were initiated by mixing selected cells, in suspension, with virus, and dispensing 50 μl/well infected cells to pre-plated compounds. Plates were incubated at 37° C./5% CO2/90% relative humidity for ˜72 hrs to permit genomic replication, and infected cells were lysed by the addition of an equal volume of lysis buffer (10 mM Tris-HCl, pH8, 50 mM KCl, 2 mM MgCl2, 0.45% NP-40, 0.45% Tween-20, and 100 μg/ml proteinase K). An aliquot of the lysate was transferred to a 384-well PCR plate and incubated at 56° C. for 1 hour and then at 95° C. for 10 min. Levels of a viral gene and of the cellular control, PPIA (Thermo Fisher Assay ID=Hs04194521_s1), were measured in separate 10 μL qPCR assays using TaqMan® Gene Expression Master Mix (Applied Biosystems), and an 7900HT Fast Real-Time PCR System with 384-Well Block Module. 7-point, serial 10-fold dilutions of a plasmid standard were run on each plate to generate a standard curve, and genome copies numbers were calculated by plotting experimental Ct onto linear regression of the standard curve. Viral genome copy numbers were normalized by cellular control copy number, and compound effects were normalized to the window defined by the controls. Calculated % effects were fit using a 4-parameter algorithm, and EC50 was reported.
as §3, with “gene” for “gene and of the cellular control, PPIA (Thermo Fisher Assay ID=Hs04194521_s1),”, “in” for “in separate”, “Compound effects on viral” for “Viral”, “number” for “numbers were normalized by cellular control copy number, and compound effects”
VZV: Strain Street was maintained as an infected cell stock in MRC-5 cells. It was assayed in MeWo or MRCS cells and was used at 0.04-0.1 pfu/cell. The assays were performed in growth medium. Primer-probe set was Thermo Fisher Assay ID=AIPAEXQ. HSV-1: Strain F Street was assayed in Vero or MRCS cells and was used at 0.0005-0.004 pfu/cell in growth medium. Primer-probe set was Thermo Fisher Assay ID=AIBJZIB

Assay [5] deals with HSV2. Briefly: Viral qPCR assay, HSV2 in MRC5 cells. The format is cell-based, Herpes Simplex Virus type 2. The settings on record: Human alphaherpesvirus 2, MRC5, 72 h, read-out: HSV2 MRC5 Cell (EC50). The gist of the method:
(§4)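 EC50 from a 4-parameter fit of % effect on HSV2 genome copies, quantified by qPCR from a plasmid standard curve and normalized to infected DMSO and uninfected controls, with PPIA correction in one version. Virus-mixed Vero or MRC5 cells met 10-point 3-fold serial compound dilutions for ~72 h at 37 °C.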

Assay [6] relates to HSV2. Briefly: Viral qPCR assay, HSV2 in Vero cells. The format is cell-based, Herpes Simplex Virus type 2. The settings on record: Human alphaherpesvirus 2, Vero, 72 h, read-out: HSV2 VERO Cell (EC50). The method in brief: as §4
For assay [7], the system named is VZV. Briefly: Viral qPCR assay, VZV in MRC5 cells. The format is cell-based, varicella zoster virus. The settings on record: Human alphaherpesvirus 3, MRC5, 72 h, read-out: VZV MRC5 Cell (IC50). The gist of the method:
as §2

For assay [8], the system named is HSV-1 Strain F. Briefly: Viral qPCR assay, HSV-1 in MRC5 cells. The settings on record: Human alphaherpesvirus 1, MRC5, 72 h, read-out: HSV1 MRC5 Cell (EC50). The format is cell-based, Herpes Simplex Virus type 1. The method in brief: as §2
Another assay relates to HCMV Strain AD169. Briefly: Viral qPCR assay, HCMV in MRC-5 cells. The format is cell-based, Human cytomegalovirus. Conditions: Human betaherpesvirus 5, AD169, MRC5, 72 h, read-out: CMV MRC5 Cell (EC50). The method in brief:
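Viral genome copies, quantified by TaqMan qPCR with a plasmid standard curve after ~72 h infection of MRC-5 cells with AD169 at 0.05-0.1 pfu/cell, served as readout; PPIA normalisation used in one format. Compounds run as 10-point 3-fold series, in standard or 50% FBS media; EC50 by 4-parameter fit.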

T2 sequence (P09252 whole entry): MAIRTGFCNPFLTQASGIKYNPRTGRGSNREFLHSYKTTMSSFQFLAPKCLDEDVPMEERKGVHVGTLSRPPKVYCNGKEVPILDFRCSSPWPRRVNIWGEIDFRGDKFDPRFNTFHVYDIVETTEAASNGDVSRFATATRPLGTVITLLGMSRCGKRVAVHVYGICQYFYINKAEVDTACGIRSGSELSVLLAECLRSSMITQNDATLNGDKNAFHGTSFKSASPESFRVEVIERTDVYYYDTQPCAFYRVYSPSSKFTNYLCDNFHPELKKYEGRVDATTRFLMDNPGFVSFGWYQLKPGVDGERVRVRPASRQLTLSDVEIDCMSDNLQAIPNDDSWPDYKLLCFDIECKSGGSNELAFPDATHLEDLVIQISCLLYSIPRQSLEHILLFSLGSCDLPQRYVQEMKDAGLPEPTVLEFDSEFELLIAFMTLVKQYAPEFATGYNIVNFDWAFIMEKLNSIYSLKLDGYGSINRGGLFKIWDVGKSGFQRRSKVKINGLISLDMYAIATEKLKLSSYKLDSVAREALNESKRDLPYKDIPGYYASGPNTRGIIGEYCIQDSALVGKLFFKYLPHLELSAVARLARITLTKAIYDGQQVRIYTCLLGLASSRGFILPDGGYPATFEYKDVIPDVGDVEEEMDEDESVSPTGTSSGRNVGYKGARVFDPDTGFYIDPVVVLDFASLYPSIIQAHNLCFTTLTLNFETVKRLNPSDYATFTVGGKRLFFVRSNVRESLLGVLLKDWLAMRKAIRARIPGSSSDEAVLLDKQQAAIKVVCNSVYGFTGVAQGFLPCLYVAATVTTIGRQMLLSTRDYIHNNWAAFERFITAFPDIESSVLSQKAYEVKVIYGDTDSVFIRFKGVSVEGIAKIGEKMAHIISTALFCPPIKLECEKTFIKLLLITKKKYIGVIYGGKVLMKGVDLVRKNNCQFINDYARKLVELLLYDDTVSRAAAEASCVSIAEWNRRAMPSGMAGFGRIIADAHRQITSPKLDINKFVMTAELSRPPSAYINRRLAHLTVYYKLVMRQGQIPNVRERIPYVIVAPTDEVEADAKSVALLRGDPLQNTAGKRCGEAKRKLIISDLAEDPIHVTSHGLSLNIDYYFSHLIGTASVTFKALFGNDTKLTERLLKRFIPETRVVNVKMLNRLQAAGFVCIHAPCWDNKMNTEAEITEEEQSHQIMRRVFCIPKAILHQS
T1 sequence (P08546 whole entry): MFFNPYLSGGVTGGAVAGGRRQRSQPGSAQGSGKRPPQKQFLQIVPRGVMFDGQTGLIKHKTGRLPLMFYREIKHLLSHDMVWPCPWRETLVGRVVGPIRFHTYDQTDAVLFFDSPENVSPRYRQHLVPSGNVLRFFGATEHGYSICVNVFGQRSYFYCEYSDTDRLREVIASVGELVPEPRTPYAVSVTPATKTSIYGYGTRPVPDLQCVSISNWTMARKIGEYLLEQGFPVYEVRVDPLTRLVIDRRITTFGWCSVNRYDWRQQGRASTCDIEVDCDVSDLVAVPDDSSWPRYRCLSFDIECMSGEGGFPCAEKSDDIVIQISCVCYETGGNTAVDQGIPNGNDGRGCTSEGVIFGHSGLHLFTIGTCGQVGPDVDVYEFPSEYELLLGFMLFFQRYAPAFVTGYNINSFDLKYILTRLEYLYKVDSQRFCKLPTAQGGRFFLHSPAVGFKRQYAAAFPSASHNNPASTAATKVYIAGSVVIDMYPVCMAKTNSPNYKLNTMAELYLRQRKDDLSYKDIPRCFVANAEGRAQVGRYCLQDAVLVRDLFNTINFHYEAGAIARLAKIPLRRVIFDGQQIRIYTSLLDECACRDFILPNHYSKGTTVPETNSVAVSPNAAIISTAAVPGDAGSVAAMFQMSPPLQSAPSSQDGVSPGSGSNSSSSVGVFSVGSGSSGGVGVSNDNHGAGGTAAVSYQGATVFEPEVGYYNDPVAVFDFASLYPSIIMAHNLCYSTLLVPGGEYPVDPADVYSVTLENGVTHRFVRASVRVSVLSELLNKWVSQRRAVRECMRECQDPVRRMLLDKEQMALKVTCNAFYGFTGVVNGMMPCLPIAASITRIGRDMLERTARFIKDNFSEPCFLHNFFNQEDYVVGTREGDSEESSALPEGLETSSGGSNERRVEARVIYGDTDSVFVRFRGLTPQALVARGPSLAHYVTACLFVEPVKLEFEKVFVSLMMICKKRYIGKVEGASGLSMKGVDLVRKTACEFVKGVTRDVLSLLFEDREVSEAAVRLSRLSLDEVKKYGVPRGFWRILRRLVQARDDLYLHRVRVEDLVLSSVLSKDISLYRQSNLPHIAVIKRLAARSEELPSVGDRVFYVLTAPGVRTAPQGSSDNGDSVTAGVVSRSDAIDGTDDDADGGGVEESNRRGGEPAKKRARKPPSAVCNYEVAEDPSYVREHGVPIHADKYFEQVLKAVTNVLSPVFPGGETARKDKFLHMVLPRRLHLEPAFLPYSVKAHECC

For `CC(C)C(=O)NCCn1nc(C(=O)NCc2ccc(Cl)cc2)c2c1CN(C[C@H]1CCC(=O)N1)C2` [Compound 25], the IC50 in assay [1] amounted to 11.3 nM; in assay [3], 11.5 nM; in the assay with VZV [4], 484 nM; with VZV [7] it was 29000 nM. Besides, the EC50 worked out at 99000 nM with HSV-1 Strain F [2]; 16400 nM in the assay on HSV2 [5]; 99000 nM with HSV2 [6]; 17400 nM in the assay with HSV-1 Strain F [8]; 970 nM in the assay with HCMV Strain AD169.

Regarding `O=C1CC[C@H](CN2Cc3c(C(=O)NCc4ccc(Cl)cc4)nn(CCn4ccc(Cl)n4)c3C2)N1` [Compound 36], the IC50 in [1] is 8.94 nM; in assay [3], 5.85 nM; in the assay on VZV [4], 102 nM; in the assay with VZV [7], 856 nM. Besides, the EC50 in the assay on HSV-1 Strain F [2] was 1190 nM; in the assay on HSV2 [5] it was 960 nM; in the assay with HSV2 [6], 2840 nM; with HSV-1 Strain F [8] it was 1270 nM; with HCMV Strain AD169 it was 453 nM.

As to `Cn1nc(C(=O)NCc2ccc(Cl)c(F)c2)c2c1CN(C[C@H]1CCC(=O)N1)C2` [Compound 60], the IC50 in [1] was found to be 143 nM; in [3] it was 112 nM; in the assay with VZV [4], 1470 nM; with VZV [7], 5960 nM. Moreover, the EC50 is 2850 nM in the assay with HSV-1 Strain F [2]; 5570 nM with HSV2 [5]; 5460 nM with HSV2 [6]; 8350 nM in the assay on HSV-1 Strain F [8]; 970 nM in the assay on HCMV Strain AD169.

The record behind these values is US20240059693A1, “FUSED BICYCLIC PYRAZOLE DERIVATIVES AND METHODS OF USE THEREOF FOR THE TREATMENT OF HERPESVIRUSES” (Merck Sharp & Dohme LLC, priority 2020, published 2024).
